Data reported in article PMC8348310, “Antioxidants Isolated from Elaeagnus umbellata (Thunb.) Protect against Bacterial Infections and Diabetes in Streptozotocin-Induced Diabetic Rat Model” (Molecules, 2021).
≈ marks a conversion by molar mass, not a printed value.

Legend:
Staphylococcus aureus = assay: Broth dilution MIC determination; assay type: cell-based; settings: 37 °C, 24 h, read-out: Minimum Inhibitory Concentrations
Procedure: Stock solutions of morin, phloroglucinol, and 1-hexyl benzene were prepared in dimethylsulphoxide (DMSO). […] Sterile centrifuge tubes were arranged in sets of rows for each bacterial inoculum to cover the different concentration of isolated compounds in triplicate. […] A sterility control tube and a growth control tube were also incubated (for each strain). The tubes were incubated at 37 °C for 24 h. After incubation, 40 μL of a 0.4 mg/mL solution of para iodonitrotetrazolium (INT) chloride was added to each tube as an indicator of microbial growth. […] The evaluation for the inhibition of microbial growth was based on the color change of INT to pink, while no color change indicates the absence of growth. The MIC is the lowest concentration of the compounds at which there is no visible growth in the tubes. The concentration that inhibited bacterial growth completely (the first clear tube) was taken as the MIC value. Experiments were performed in triplicate and mean values are presented. […] A negative control experiment was conducted using only DMSO.

Proteus mirabilis = assay: Broth dilution MIC determination; assay type: cell-based; settings: 37 °C, 24 h, read-out: Minimum Inhibitory Concentrations
Procedure: (§1) Antibacterial potential of isolated compound was investigated against both Gram-positive and Gram-negative bacterial strains; Escherichia coli, Bacillus cereus, Salmonella typhi, Klebsiella pneumonia, Pseudomonas aeruginosa and Proteus mirabilis. Bacterial strains were provided by the Department of Pharmacy, University of Malakand, Khyber Pakhtunkhwa, Pakistan, and were kept at 4 °C in agar slants in freeze-dried condition until further use.
(§2) Both Gram-positive and Gram-negative bacterial strains Escherichia coli, Bacillus cereus, Salmonella typhi, Klebsiella pneumonia, Pseudomonas aeruginosa and Proteus mirabilis organism viable count per mL in the stock suspension was determined using surface viable counting technique. About 10^8–10^9 colony-forming units (CFU) per mL were used as inoculum in subsequent experiments. A fresh stock suspension was used each time.
(§3) Minimum inhibitory concentrations (MICs) of morin, phloroglucinol, and 1-hexyl benzene were determined using broth dilution method, following the Clinical and Laboratory Standards Institute (CLSI) guidelines. Stock solutions of morin, phloroglucinol, and 1-hexyl benzene were prepared in dimethylsulphoxide (DMSO). The serial dilutions from the stock solution were made ranging from 500 to 3.90 μg/mL using Mueller–Hinton broth. Sterile centrifuge tubes were arranged in sets of rows for each bacterial inoculum to cover the different concentration of isolated compounds in triplicate. The standard bacterial stock suspension 10^8–10^9 CFU/mL, in 100 μL were inoculated into each tube. A sterility control tube and a growth control tube were also incubated (for each strain). The tubes were incubated at 37 °C for 24 h. After incubation, 40 μL of a 0.4 mg/mL solution of para iodonitrotetrazolium (INT) chloride was added to each tube as an indicator of microbial growth. […] The evaluation for the inhibition of microbial growth was based on the color change of INT to pink, while no color change indicates the absence of growth. The MIC is the lowest concentration of the compounds at which there is no visible growth in the tubes. The concentration that inhibited bacterial growth completely (the first clear tube) was taken as the MIC value. Experiments were performed in triplicate and mean values are presented.
(§4) In order to, determine the sensitivity of the bacterial strains, positive control experiments were conducted, taking ampicillin at a starting concentration of 0.10 mg/mL in sterile water while the final concentrations for these experiments ranged from 25.00 to 0.19 μg/mL. A negative control experiment was conducted using only DMSO.

Bacillus cereus = assay: Broth dilution MIC determination; assay type: cell-based; settings: 37 °C, 24 h, read-out: Minimum Inhibitory Concentrations
Procedure: as §1, §2, §3, §4

Klebsiella pneumonia = assay: Broth dilution MIC determination; assay type: cell-based; settings: Klebsiella pneumoniae, 37 °C, 24 h, read-out: Minimum Inhibitory Concentrations
Procedure: as §1, §2, §3, §4

Escherichia coli = assay: Broth dilution MIC determination; assay type: cell-based; settings: 37 °C, 24 h, read-out: Minimum Inhibitory Concentrations
Procedure: as §1, §2, §3, §4

Pseudomonas aeruginosa = assay: Broth dilution MIC determination; assay type: cell-based; settings: 37 °C, 24 h, read-out: Minimum Inhibitory Concentrations
Procedure: as §1, §2, §3, §4

Salmonella typhi = assay: Broth dilution MIC determination; assay type: cell-based; settings: Salmonella enterica, 24 h, read-out: Minimum Inhibitory Concentrations
[1] = DPPH free radical scavenging assay; assay type: biochemical
Procedure: According to the Brand-Williams assay DPPH (2, 2-diphenyl-1-picrylhydrazyl) free radical scavenging activity of morin was determined. DPPH and compounds stock solutions (1 mg/mL) were prepared in 100 mL methanol with serial dilutions of […], 62.5, 250, 500, and 1000 µg/mL. After that, 0.1 mL morin was mixed with 3.0 mL DPPH solution and incubated at 23 °C for 30 min. Standard ascorbic acid solution was also prepared in the same way using as a positive control. Finally, absorbance was measured at 517 nm via UV spectrophotometer. Results were taken in a set of three experiments and represented as mean ± SEM. Percent free radicals scavenging potential was calculated according to the following Equation (1): (1) % Free radicals Scavenging potential = Blank sample absorbance−sample absorbance/Blank sample absorbance×100
(§5) All the in vitro and in vivo experiments were analyzed in three replicates and determined as mean ± SEM. Student’s t-test and one way ANOVA followed by Dunnett’s post hoc multiple comparison test was used. p ≤ 0.05 were considered as significant. Linear regression analysis was used to calculate the IC50 value for % DPPH, ABTS, α-amylase, and α-glucosidase inhibition against the different concentrations of the test samples by means of Excel program 2007.

[2] = ABTS free radical scavenging assay; assay type: biochemical
Procedure: ABTS (2,2′-azinobis-3-ethylbenzothiazoline-6-sulfonic acid) free radicals inhibition potential were determined according to the reported assay. ABTS solution was prepared in methanol (100 mL). In total, 300 µL of compound (morin, phloroglucinol, and 1-hexyl benzene) was mixed thoroughly with 3.0 mL ABTS solution and incubated for six minutes. Finally, the absorbance was measured through UV spectrophotometer using ascorbic acid as positive control. Percent ABTS free radicals scavenging potential was calculated using the equation No. 1.
as §5

[3] = DPPH free radical scavenging assay; assay type: biochemical; settings: 125 µg/mL
[4] = 1000 µg/mL, listed as ascorbic acid
[5] = linear regression of % scavenging vs concentration

## CC1(C)S[C@@H]2[C@H](NC(=O)[C@H](N)c3ccccc3)C(=O)N2[C@H]1C(=O)O [Ampicillin, ampicillin, reference compound]
Staphylococcus aureus
  MIC: 1.4 ± 0.5 µg/mL (≈ 4.01 µM)
Proteus mirabilis
  MIC: 1.9 ± 1.1 µg/mL (≈ 5.44 µM)
Bacillus cereus
  MIC: 1.6 µg/mL (≈ 4.58 µM)
Klebsiella pneumonia
  MIC: 1.9 ± 1.2 µg/mL (≈ 5.44 µM)
Escherichia coli
  MIC: 1 ± 0.1 µg/mL (≈ 2.86 µM)
Pseudomonas aeruginosa
  MIC: 1.2 ± 0.5 µg/mL (≈ 3.43 µM)
Salmonella typhi
  MIC: 1.8 ± 0.1 µg/mL (≈ 5.15 µM)

## O=C1O[C@H]([C@@H](O)CO)C(O)=C1O [Ascorbic acid, ascorbic acid, reference compound]
[1]; 31.05 µg/mL
  % DPPH Scavenging Mean ± SEM: 69 ± 0.4%
[1]; 62.5 µg/mL
  % DPPH Scavenging Mean ± SEM: 73 ± 0.5%
[1]; 250 µg/mL
  % DPPH Scavenging Mean ± SEM: 80 ± 0.4%
[1]; 500 µg/mL
  % DPPH Scavenging Mean ± SEM: 86 ± 1.0%
[1]; 1000 µg/mL
  % DPPH Scavenging Mean ± SEM: 91 ± 0.5%
[1]; [4]
  % DPPH Scavenging Mean ± SEM: 86 ± 0.5%
[1]; [5]
  DPPH IC50: 29 µg/mL
[2]; 31.05 µg/mL
  % ABTS Scavenging Mean ± SEM: 56 ± 1.1%
[2]; 62.5 µg/mL
  % ABTS Scavenging Mean ± SEM: 64 ± 1.0%
[2]; 125 µg/mL
  % ABTS Scavenging Mean ± SEM: 70 ± 0.5%
[2]; 250 µg/mL
  % ABTS Scavenging Mean ± SEM: 78 ± 0.5%
[2]; 500 µg/mL
  % ABTS Scavenging Mean ± SEM: 84 ± 1.1%
[2]; 1000 µg/mL
  % ABTS Scavenging Mean ± SEM: 90 ± 0.5%
[2]; [4]
  % ABTS Scavenging Mean ± SEM: 85 ± 0.5%
[2]; [5]
  ABTS IC50: 32 µg/mL
[3]
  % DPPH Scavenging Mean ± SEM: 77 ± 0.4%
